# Laboratory results: patent publication US5260327A, “Methods for inhibiting the proliferation of brain and hepatic metastases by using lonidamine” (priority 1992, dated 1993)
# Entries after “also recorded” stand apart in the source; their conditions may differ.
# Assays:
# [1] = system: multicellular HeLa spheroids; test: Radio-enhancement in multicellular tumor spheroids (growth delay); format: cell-based, human
# Source text: Based on these studies, and on supportive studies in mice receiving the drug chronically,Kim et al. proposed that optimal use of lonidamine would be to employ it both during and, in a prolonged exposure, after the course of radiation therapy.
# The drug's radio-enhancing effects in multicellular tumor spheroids (MTS) was examined assessing growth delay following radiation with and without the drug.
# HeLa cells = test: Trimodality therapy in HeLa monolayer cell cultures; format: cell-based, human
# Source text: Lonidamine was present only during heating.
# (§1) The effect of trimodality therapy has been examined in HeLa monolayer cell cultures and in the transplanted Meth-A fibrosarcoma. The studies in HeLa cell cultures used a single radiation fraction, and prompt subculture for clonal analysis, conditions which would reduce any heat or drug-induced effect on potential lethal damage. […] In vivo comparative assessment of trimodality therapy versus single and bimodality combination was made in the oxic Meth-A fibrosarcoma. The trimodality regimen consisted of lonidamine (50 mg/kg/day chronically throughout the period of observation), plus radiation therapy (6 Gy×5), and hyperthermia (41.2° C.×65 min pre radiation therapy on days 1 and 4 of therapy); the results are presented in FIG. 14.
# Meth-A fibrosarcoma [2] = test: In vivo trimodality therapy versus single and bimodality therapy, tumor growth delay; parameters: species or system mice; settings: lonidamine 50 mg/kg/day
# Source text: as §1
# Meth-A fibrosarcoma [3] = test: In vivo therapy with lonidamine, radiation and hyperthermia, tumor control; parameters: species or system BALB/cBy mice
# Protocol: Localized radiation and hyperthermia was performed on BALB/cBy mice when tumors were 0.7+/-0.1 cucm and tumor analysis endpoints have been previously described. (26) Tumor control was defined as non-palpable tumor at 60 days. Waterbath temperatures were 41.7° C./65 minutes and […]/65 minutes×2 fractions. […] (Bailey, 26 g thermocouple) below circulated water bath temperatures. Separation between the two hyperthermia treatments was 72 hours.
# Lonidamine administration at hour pre-radiation and immediately hyperthermia and was based on serum pharmacokinetic and radiation studies (25). Animals were primed at 100 mg/kg. s.c., 3 days pre-radiation or hyperthermia. At the initiation of radiation or hyperthermia, animals were inoculated 50 mg/kg i.p. 1 hour before treatment and 50 mg/kg s.c. at 48 hours post treatment. Animals were maintained (100 mg/kg) during fractionation and post treatment until recurrence to initial volumes.
# hepatic metastases = test: Phase I study of lonidamine + radiation therapy in patients with hepatic metastases; format: in vivo, human (patients)
# Protocol: Lonidamine has received extensive clinical assessment both as a single agent and in combination with radiation therapy. […] In this dosage peak plasma levels of 5 to 15 μg/ml are attained; this is within the range that enhances the effect of radiation and hyperthermia in model systems (24-26, 30, 37 and 38). Two combined lonidamine+radiation therapy studies have been conducted in patients with extensive hepatic or brain metastases, respectively. […] The study in patients with brain metastases employed a randomized comparative design. Fifty eight patients were enrolled; 31 received lonidamine plus whole brain radiation therapy (WBRT) 300 cGy×10; 27 received WBRT alone.
# [4] = cited from earlier work
# brain metastases = settings: cited from earlier work
# [5] = system: Stage 2-4 head and neck cancer; settings: cited from earlier work
# [6] = system: oxidative and glycolytic metabolism of mammalian cells; settings: cited from earlier work
# [7] = system: repair of radiation-induced potentially lethal damage (PLD); settings: cited from earlier work
# spermatogenesis = settings: in vivo; cited from earlier work
# [8] = system: cell culture and murine tumor systems; settings: cited from earlier work
# [9] = single large daily dosage just prior to radiation
structure (smiles),measurement,setting,value
O=C(O)c1nn(Cc2ccc(Cl)cc2Cl)c2ccccc12 [lonidamine],spheroid regrowth on lonidamine removal,[1]; lonidamine removed 5 days following the last radiation exposure,begins to grow again when lonidamine is removed
same,effect of fractionation of radiation dose on lonidamine effect,"[1]; multicellular HeLa spheroids, with radiation",increased by fractionation of the radiation dose; also recorded: increased with increasing dose fractionation
same,cytotoxic effect on HeLa cells,HeLa cells; 37° C.,no cytotoxic effect on HeLa cells at 37 °C
same,trimodality therapy vs radiation alone or bimodality therapy,"HeLa cells; radiation therapy+lonidamine+mild hyperthermia (41.5° C.), single radiation fraction","clearly superior to radiation alone, or bimodality therapy"
same,"day of tumor regrowth, trimodality therapy","Meth-A fibrosarcoma [2]; 6 Gy×5, 41.2° C.×65 min, regrowth not yet evident (radiation+hyperthermia: day 18)",> 32 days
same,"tumor growth inhibition, radiation therapy+lonidamine, until day",Meth-A fibrosarcoma [2]; radiation 6 Gy×5 (radiation alone: day 11),13 days
same,"tumor regression, trimodality therapy","Meth-A fibrosarcoma [2]; radiation 6 Gy×5, hyperthermia 41.2° C.×65 min days 1 and 4",tumor regression to the point of non-palpability
same,"tumor response, lonidamine+hyperthermia vs hyperthermia alone and radiation+lonidamine vs radiation alone","Meth-A fibrosarcoma [3]; 41.2° C. or 41.7° C., fractionated",No differences were observed
same,"tumor response, lonidamine in adjuvant capacity",Meth-A fibrosarcoma [3]; adjuvant,Marginal differences in tumor response
same,tri-modality therapy vs single or bi-modality treatments,"Meth-A fibrosarcoma [3]; mouse, in vivo",consistently greater effect when compared to single or bi-modality treatments
same,"tumor control, tri-modality therapy (radiation+hyperthermia+lonidamine)","Meth-A fibrosarcoma [3]; non-palpable tumor at 60 days, 41.2° C. or 41.7° C.",50-56%
same,tri-modality therapy vs radiation+hyperthermia at 41.2° C.,Meth-A fibrosarcoma [3]; tumor control,more effective than the tumor control for radiation+hyperthermia at 41.2 °C
same,objective tumor regression,hepatic metastases; lonidamine + radiation therapy 250 to 500 cGy ×5,five of fifteen
same,"patients with peak plasma levels ≥15 μg/ml, hepatic study",hepatic metastases; [9],11 of 17
same,patient tolerance of the combination,hepatic metastases; single large daily lonidamine dosage + radiation therapy,acceptable patient tolerance
same,peak plasma levels,[4]; 150 mg t.i.d.,5 to 15 µg/mL
same,tolerability,[4]; 150 mg t.i.d.,well tolerated by most patients
same,dose-limiting side effect,[4]; clinical,skeletal muscle discomfort
same,"response or survival, lonidamine + WBRT vs WBRT alone",brain metastases; WBRT 300 cGy×10,no significant difference in response or survival
same,"patients with peak plasma levels ≥15 μg/ml, WBRT study",brain metastases; [9],15 of 30
same,disease free survival at 2 years (all patients),[5]; Radiation Therapy+Lonidamine 150 mg t.i.d. (placebo arm: 25%),51%
same,complete response rate,[5]; Radiation Therapy+Lonidamine 150 mg t.i.d. (placebo arm: 58%),69%
same,remission duration,[5]; Radiation Therapy+Lonidamine 150 mg t.i.d. vs placebo arm,longer in the lonidamine treated arm
same,disease free survival rate versus radiation therapy,"[5]; lonidamine + radiation therapy, placebo-controlled randomized study",significantly increased the disease free survival rate
same,effects on oxidative and glycolytic metabolism,[6],inhibitory effects on both oxidative and glycolytic metabolism of mammalian cells; also recorded: perturb energy metabolism in neoplastic cells
same,inhibition of repair of radiation-induced potentially lethal damage,[7],inhibitor of repair of radiation-induced potentially lethal damage; also recorded: established inhibitor of repair of potential lethal damage
same,inhibition of spermatogenesis,spermatogenesis,potent inhibitor of spermatogenesis in mammals
same,pH dependence of hyperthermia enhancing effects,[8]; acidification of cell culture medium,greatly increased by acidification of the cell culture medium; also recorded: increased in cells under conditions of reduced extracellular pH
same,radiation and hyperthermia enhancement,[8],radiation and hyperthermia enhancing agent in cell culture and murine tumor systems; also recorded: enhanced cytotoxic effects in cells treated either with radiation or hyperthermia
